The target of experiment [1] is Beta-1 adrenergic receptor (Cavia porcellus, UniProt B0FL73). The experiment can be described thus: Antagonist activity at beta1 adrenoceptor in guinea pig atrium assessed as inhibition of isoproterenol-induced response after 20 mins. Also noted: species or system Cardiac atrium. The settings on record: read-out: pA2 (converted).
Experiment [2] concerns the target Beta-2 adrenergic receptor (Cavia porcellus, UniProt Q8K4Z4). In words: Antagonist activity at beta2 adrenoceptor in guinea pig trachea assessed as inhibition of isoproterenol-induced response after 20 mins. The settings on record: read-out: pA2 (converted).
For experiment [3], the target named is Beta-1 adrenergic receptor (Cavia porcellus) (UniProt B0FL73). In words: Competitive inhibition of beta1 adrenoceptor in guinea pig atrium assessed as inhibition of isoproterenol-induced response after 20 mins by Schild plot analysis. As to conditions: Cardiac atrium.
Beta-1 adrenergic receptor (Cavia porcellus), sequence (B0FL73 1-467): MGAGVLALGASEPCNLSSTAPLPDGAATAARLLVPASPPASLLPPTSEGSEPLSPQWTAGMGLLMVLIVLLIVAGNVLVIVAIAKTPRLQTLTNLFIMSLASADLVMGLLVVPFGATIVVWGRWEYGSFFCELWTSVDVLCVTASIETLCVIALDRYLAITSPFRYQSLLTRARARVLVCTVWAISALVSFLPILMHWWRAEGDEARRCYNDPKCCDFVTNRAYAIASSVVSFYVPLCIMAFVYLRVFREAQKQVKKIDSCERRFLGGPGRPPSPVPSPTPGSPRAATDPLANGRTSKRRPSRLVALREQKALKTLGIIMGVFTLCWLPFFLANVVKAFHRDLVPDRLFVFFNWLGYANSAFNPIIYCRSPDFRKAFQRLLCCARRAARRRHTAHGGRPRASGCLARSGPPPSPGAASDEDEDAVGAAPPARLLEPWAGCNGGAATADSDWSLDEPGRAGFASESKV
Experiment [4] has the same target. In words: Intrinsic activity at beta1 adrenoceptor in guinea pig atrium relative to isoproterenol. The settings on record: Cardiac atrium.
Experiment [5] has as its target Beta-2 adrenergic receptor (Cavia porcellus) (UniProt Q8K4Z4). The experiment can be described thus: Intrinsic activity at beta2 adrenoceptor in guinea pig atrium relative to isoproterenol. As to conditions: Cardiac atrium.
The species named for the next experiment is Cavia porcellus. The experiment can be described thus: Selectivity ratio for beta1 adrenoceptor in guinea pig atrium over beta2 adrenoceptor in guinea pig trachea. The format is tissue-based. The settings on record: Cardiac atrium.
In experiment [6] the target is Beta-1 adrenergic receptor (Cavia porcellus) (UniProt B0FL73). The experiment can be described thus: Partial agonist activity at beta1 adrenoceptor in guinea pig atrium. As to conditions: Cardiac atrium.
For experiment [7], the target named is Beta-2 adrenergic receptor (Cavia porcellus) (UniProt Q8K4Z4). In words: Partial agonist at beta2 adrenoceptor in guinea pig trachea.
Beta-2 adrenergic receptor (Cavia porcellus), sequence (Q8K4Z4 whole entry, looked up): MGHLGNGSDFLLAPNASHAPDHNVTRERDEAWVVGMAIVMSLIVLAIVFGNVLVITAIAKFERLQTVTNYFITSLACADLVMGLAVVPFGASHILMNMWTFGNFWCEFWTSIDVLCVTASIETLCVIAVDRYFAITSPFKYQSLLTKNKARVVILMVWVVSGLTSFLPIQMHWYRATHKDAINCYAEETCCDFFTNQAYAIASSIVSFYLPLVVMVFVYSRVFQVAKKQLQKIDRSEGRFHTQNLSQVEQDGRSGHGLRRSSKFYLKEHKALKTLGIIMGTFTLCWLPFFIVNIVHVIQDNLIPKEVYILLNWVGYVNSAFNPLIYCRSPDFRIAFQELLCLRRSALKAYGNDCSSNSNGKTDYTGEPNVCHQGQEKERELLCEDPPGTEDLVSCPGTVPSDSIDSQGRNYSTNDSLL

Calls of active or inactive are those of the source. The rule behind the calls is not given here.

Beta-2 adrenergic receptor, sequence (Q8K4Z4 whole entry): as the sequence (Q8K4Z4 whole entry, looked up) above
Beta-1 adrenergic receptor, sequence (B0FL73 whole entry): as the sequence (B0FL73 1-467) above

As for `COc1ccc(Br)cc1C(O)CNC(C)C` (stereo not given), the Kb in experiment [1] is 1480 nM; in experiment [2] it was 933 nM.

Consider `COc1cc(C)ccc1C(O)CNC(C)C` (stereo not given), for which the inhibition entry in experiment [3] was “Active”. For the same compound, the Kb is 10 nM in experiment [1] and 398 nM in experiment [2]. Besides, the Intrinsic activity in experiment [4] and in experiment [5] was 0.2 each time. In addition, in the experiment listed under Cavia porcellus, the Selectivity ratio came to 40.

`COc1cc(Br)ccc1C(O)CNC(C)C` (stereo not given): the inhibition result in experiment [3] was “Active”. In addition, the values for the Kb in experiment [1] and in experiment [2] were 5.75 nM and 13.5 nM, respectively. Moreover, the Intrinsic activity in experiment [4] and in experiment [5] was 0.2 each time. Also, the Selectivity ratio in the experiment listed under Cavia porcellus stood at 2.

Turning to `COc1ccc(C)cc1C(O)CNC(C)C` (stereo not given), the Kb in experiment [1] and in experiment [2] was 2510 nM in each case.

On to `COc1ccccc1C(O)CNC(C)C` (stereo not given), for which the Kb in experiment [1] is 617 nM; in experiment [2], 120 nM. Besides, the figures for the pD2 in experiment [6] and in experiment [7] were 6.3 and 6.8, respectively. Also, the Intrinsic activity in experiment [4] and in experiment [5] was 0.5 throughout.

As to `Cc1cccc(C(O)CNC(C)C)c1` (stereo not given), the Kb in experiment [1] was 794 nM; in experiment [2], 2000 nM.

For `CC(C)NCC(O)c1cccc(Br)c1` (stereo not given), the Kb was 631 nM in experiment [1] and 1260 nM in experiment [2].

As for `Cc1ccc(C(O)CNC(C)C)cc1` (stereo not given), the Kb was 126 nM in experiment [1] and 316 nM in experiment [2].

As for `CC(C)NCC(O)c1ccc(Br)cc1` (stereo not given), the Kb in experiment [1] is 158 nM; in experiment [2], 200 nM.

The record behind these values is ChEMBL document CHEMBL3244030, “2-Methoxyphenylethanolamines, potential beta-adrenergic blocking agents” (J Med Chem, 1978).
